“And” between values parts separate entries of the source, which are not always exact repeats. Equal values may be shown once. Read-outs that look alike come from different tables or passages of the source.

One assay addresses T1, secreted GV sPLA2 (Homo sapiens, UniProt P39877).
T1 sequence (P39877 21-138): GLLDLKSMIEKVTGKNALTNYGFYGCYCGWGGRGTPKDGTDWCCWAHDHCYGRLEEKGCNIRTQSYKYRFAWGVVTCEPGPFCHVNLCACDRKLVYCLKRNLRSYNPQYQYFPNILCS
In words: radioactivity-based mixed micelle assay, GV sPLA2. It is filed as biochemical. On the procedure: (§1) All synthesized thiazolyl ketones were tested for their in vitro inhibitory activity on recombinant human cPLA2α and selectivity over human calcium-independent GVIA iPLA2 and secreted GV sPLA2 using our previously described group-specific radioactivity-based mixed micelle assays. The inhibition results are presented either as per cent inhibition or as XI(50) values in Table 1. […] The XI(50) is defined as the mole fraction of the inhibitor in the total substrate interface required to inhibit the enzyme activity by 50%. For comparison purposes, previously published data for the inhibitor GK470[19] are included. […] Inhibitors were initially screened at 0.091 mol fraction (5 μL of 5 mM inhibitor in DMSO) in substrate (495 μL) in technical triplicates. […] The XI(50) value and stdev values reported are for the entire curve. This analysis was performed in GraphPad Prism v6.

Another assay addresses T2, recombinant human cPLA2α (Homo sapiens, UniProt P47712).
T2 sequence (P47712 1-749): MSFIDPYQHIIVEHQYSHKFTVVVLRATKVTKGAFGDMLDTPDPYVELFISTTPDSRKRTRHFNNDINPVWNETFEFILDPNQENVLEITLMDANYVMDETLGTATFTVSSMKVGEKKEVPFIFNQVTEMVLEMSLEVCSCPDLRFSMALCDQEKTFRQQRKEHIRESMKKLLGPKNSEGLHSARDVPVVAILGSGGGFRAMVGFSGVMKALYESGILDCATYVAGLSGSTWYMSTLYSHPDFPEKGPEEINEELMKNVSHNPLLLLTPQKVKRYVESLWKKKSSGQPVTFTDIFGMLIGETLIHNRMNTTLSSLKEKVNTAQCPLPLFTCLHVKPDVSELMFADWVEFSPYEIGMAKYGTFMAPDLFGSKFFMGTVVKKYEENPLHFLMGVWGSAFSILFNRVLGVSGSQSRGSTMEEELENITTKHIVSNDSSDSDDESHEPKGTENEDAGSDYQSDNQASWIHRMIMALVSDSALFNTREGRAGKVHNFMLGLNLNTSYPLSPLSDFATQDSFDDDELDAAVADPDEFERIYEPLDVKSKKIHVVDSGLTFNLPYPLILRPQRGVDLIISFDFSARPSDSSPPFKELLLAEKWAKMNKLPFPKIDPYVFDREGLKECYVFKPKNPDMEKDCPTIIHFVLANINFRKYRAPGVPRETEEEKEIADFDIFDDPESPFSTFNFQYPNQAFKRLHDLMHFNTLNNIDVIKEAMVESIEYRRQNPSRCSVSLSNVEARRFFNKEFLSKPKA
In words: radioactivity-based mixed micelle assay, cPLA2α. The following applies: for cPLA2α XI(50): XI(50) ± stdev, mole fraction of inhibitor in total substrate interface for 50% inhibition; for times more potent than GK470: cPLA2α XI(50) relative to GK470; for cPLA2α inhibition, Xi50 dose-response: replicates; for cPLA2 % inhibition at 0.091 mole fraction, average: average of triplicates. It is filed as biochemical. Here is the method:
as §1

Setting [1] is: 0.091 mole fraction, read-out: GV sPLA2 % Inhib.
Setting [2] is: average of triplicates, read-out: sPLA2 % inhibition at 0.091 mole fraction, average.
The mark [3] stands for this setting: individual technical replicate, read-out: sPLA2 % inhibition at 0.091 mole fraction.
Where [4] appears, read: 0.091 mole fraction, read-out: cPLA2α % Inhib.
Setting [5] is: individual technical replicate, read-out: cPLA2 % inhibition at 0.091 mole fraction.

Regarding `CCCCCCCOc1ccc(OCC(=O)c2nc(C(=O)OC)cs2)cc1` [GK420], the inhibition at 0.091 mole fraction was found to be 46% on secreted GV sPLA2 (setting [1]); 46.4% on secreted GV sPLA2 (setting [2]); 48.2% on secreted GV sPLA2 (setting [3]); 98% on recombinant human cPLA2α (setting [4]); 97.2% on recombinant human cPLA2α (setting [5]). Besides, the “cPLA2α XI(50)” value on recombinant human cPLA2α is 0.0016 mole fraction and 0.0016 ± 0.0002 mole fraction. For the same compound, on recombinant human cPLA2α, the “times more potent than GK470” value is recorded as 7–11.
With `CCCCCCSc1ccc(OCC(=O)c2nc(C(=O)OC)cs2)cc1` [GK427], the inhibition at 0.091 mole fraction on secreted GV sPLA2 (setting [1]) was 44%; at secreted GV sPLA2 (setting [2]) it was 43.6%; at secreted GV sPLA2 (setting [3]), 39.7%; at recombinant human cPLA2α (setting [4]) it was 98%; at recombinant human cPLA2α (setting [5]) it was 98.4%. Moreover, the “cPLA2α inhibition, Xi50 dose-response” value on recombinant human cPLA2α (Log [inhibitor] (mole%) -4.30) came to 14.10. Moreover, on recombinant human cPLA2α, the “cPLA2α XI(50)” value is 0.0010 mole fraction and 0.0010 ± 0.0001 mole fraction. Moreover, the “times more potent than GK470” value on recombinant human cPLA2α was 7–11.
Consider `CCCCCCOc1ccc(SCC(=O)c2nc(C(=O)OC)cs2)cc1` [GK419], for which the inhibition at 0.091 mole fraction on secreted GV sPLA2 (setting [1]) came out at 29%; at secreted GV sPLA2 (setting [2]), 29.2%; at secreted GV sPLA2 (setting [3]) it was 33.4%; at recombinant human cPLA2α (setting [4]) it was 50%; at recombinant human cPLA2α (setting [5]) it was 54%.
Take `CCCCCCCCc1ccc(OC(C)C(=O)c2nc(C(=O)OC)cs2)cc1` (stereo not drawn) [GK402]: the inhibition at 0.091 mole fraction on secreted GV sPLA2 (setting [1]) was determined as 50%; on secreted GV sPLA2 (setting [2]) it was 49.5%; at secreted GV sPLA2 (setting [3]) it was 50.4%; at recombinant human cPLA2α (setting [4]), 79%; on recombinant human cPLA2α (setting [5]) it was 81%. Besides, at recombinant human cPLA2α, the “cPLA2 % inhibition at 0.091 mole fraction, average” value stood at 79.2%.
Regarding `COC(=O)c1csc(C(=O)COc2ccc(Oc3ccccc3)cc2)n1` [GK403], the inhibition at 0.091 mole fraction on secreted GV sPLA2 (setting [1]) came out at 32%; at secreted GV sPLA2 (setting [3]), 27.6%; on recombinant human cPLA2α (setting [4]) it was 95%; on recombinant human cPLA2α (setting [5]), 95.1%. In addition, at recombinant human cPLA2α, the “cPLA2α XI(50)” value is 0.0014 mole fraction and 0.0014 ± 0.0001 mole fraction. Further, the “cPLA2 % inhibition at 0.091 mole fraction, average” value at recombinant human cPLA2α turned out to be 95.4%.
As to `CCCCCCCCc1ccc(OCC(=O)c2nc(C(=O)OCC)cs2)cc1` [GK401], the inhibition at 0.091 mole fraction on secreted GV sPLA2 (setting [1]) was found to be 46%; at secreted GV sPLA2 (setting [2]) it was 46.1%; at secreted GV sPLA2 (setting [3]), 45.9%; at recombinant human cPLA2α (setting [4]), 89%; on recombinant human cPLA2α (setting [5]), 88.4%. In addition, the “cPLA2 % inhibition at 0.091 mole fraction, average” value at recombinant human cPLA2α was 88.7%.
Consider `COC(=O)c1csc(C(=O)C(C)Oc2ccc(Oc3ccccc3)cc2)n1` (stereo not drawn) [GK428], for which the inhibition at 0.091 mole fraction turned out to be 36% at secreted GV sPLA2 (setting [1]); 36.4% at secreted GV sPLA2 (setting [2]); 28.3% on secreted GV sPLA2 (setting [3]); 94% at recombinant human cPLA2α (setting [4]); 94.2% at recombinant human cPLA2α (setting [5]). On recombinant human cPLA2α, the “cPLA2α XI(50)” value was 0.0038 mole fraction and 0.0038 ± 0.0001 mole fraction.
Take `CCCCCCSc1ccc(OC(C)C(=O)c2nc(C(=O)OC)cs2)cc1` (stereo not drawn) [GK449]: the inhibition at 0.091 mole fraction on secreted GV sPLA2 (setting [1]) worked out at 53%; at secreted GV sPLA2 (setting [3]), 51.8%; on recombinant human cPLA2α (setting [4]), 98%; on recombinant human cPLA2α (setting [5]), 96.2%. Moreover, the “cPLA2α XI(50)” value at recombinant human cPLA2α is 0.0017 mole fraction and 0.0017 ± 0.0005 mole fraction. The “cPLA2 % inhibition at 0.091 mole fraction, average” value on recombinant human cPLA2α is 97.5%. In addition, on recombinant human cPLA2α, the “times more potent than GK470” value is recorded as 7–11.
Consider `COC(=O)c1csc(C(=O)COc2ccc(Oc3ccc(F)cc3)cc2)n1` [GK440], for which the inhibition at 0.091 mole fraction turned out to be 31% at secreted GV sPLA2 (setting [1]); 30.8% on secreted GV sPLA2 (setting [2]); 34.1% on secreted GV sPLA2 (setting [3]); 100% on recombinant human cPLA2α (setting [4]); 99.5% at recombinant human cPLA2α (setting [5]). Further, at secreted GV sPLA2 (individual technical replicate), the “sPLA2 % inhibition at 0.091 mole fraction” value came out at 29.2%. In addition, the “cPLA2α inhibition, Xi50 dose-response” value at recombinant human cPLA2α (Log [inhibitor] (mole%) -1.00) is 102.2; at recombinant human cPLA2α (Log [inhibitor] (mole%) -1.22) it was 99.7. At recombinant human cPLA2α, the “cPLA2α XI(50)” value was 0.0010 mole fraction and 0.0010 ± 0.0001 mole fraction. In addition, the “cPLA2 % inhibition at 0.091 mole fraction, average” value on recombinant human cPLA2α came out at 100.3%.
As to `CCCCCCCOc1ccc(OC(C)C(=O)c2nc(C(=O)OC)cs2)cc1` (stereo not drawn) [GK439], the inhibition at 0.091 mole fraction on secreted GV sPLA2 (setting [1]) turned out to be 53%; at secreted GV sPLA2 (setting [2]), 53.3%; at secreted GV sPLA2 (setting [3]), 50.7%; at recombinant human cPLA2α (setting [4]) it was 97%; on recombinant human cPLA2α (setting [5]) it was 96%. Moreover, the “cPLA2α inhibition, Xi50 dose-response” value on recombinant human cPLA2α (Log [inhibitor] (mole%) -3.00) was 33.0. In addition, the “cPLA2α XI(50)” value at recombinant human cPLA2α was 0.0029 mole fraction and 0.0029 ± 0.0004 mole fraction. Further, the “cPLA2 % inhibition at 0.091 mole fraction, average” value at recombinant human cPLA2α is reported as 96.6%.

For the origin of these results see article PMC11696576, “Next generation thiazolyl ketone inhibitors of cytosolic phospholipase A2 α for targeted cancer therapy” (Nature Communications, 2025).
